The experiment has as its target human μ-opiate receptor (Homo sapiens, UniProt P35372). The experiment is described as follows: Affinity for the human μ-opiate receptor ([3H]-naloxone displacement, SPA, CHO-K1 membrane preparation). In kind it is binding. As to conditions: for inhibition at 1 µM: read-out: μ-Opioid receptor, % inhibition [1 μM]; for Ki: read-out: μ-Opioid receptor, Ki.

Sequence of human μ-opiate receptor (P35372 whole entry): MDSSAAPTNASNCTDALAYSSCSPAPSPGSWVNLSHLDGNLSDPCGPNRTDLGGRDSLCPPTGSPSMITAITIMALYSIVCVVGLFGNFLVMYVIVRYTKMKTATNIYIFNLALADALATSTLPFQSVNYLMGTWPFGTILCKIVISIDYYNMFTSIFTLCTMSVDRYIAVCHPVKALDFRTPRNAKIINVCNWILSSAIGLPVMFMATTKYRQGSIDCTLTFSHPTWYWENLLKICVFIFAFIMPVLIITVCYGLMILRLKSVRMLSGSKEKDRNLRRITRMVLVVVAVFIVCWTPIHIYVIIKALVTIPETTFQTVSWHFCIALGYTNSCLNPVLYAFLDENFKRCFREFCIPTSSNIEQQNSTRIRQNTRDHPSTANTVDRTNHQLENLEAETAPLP

One may read the inhibition as the drop in the measured response relative to a control, in per cent. By Ki is commonly meant a dissociation constant, usually derived from enzyme kinetics or from competition with a known ligand. For `CN(C)C(c1cccs1)C1CCC(NC(=O)c2cccnc2Oc2ccc(Cl)cc2)CC1` (stereo not shown) [compound 257, 2-(4-chloro-phenoxy)-N-[4-(dimethylamino-thiophen-2-yl-methyl)-cyclohexyl]-nicotinamide], the inhibition at 1 µM came to 79% and the Ki is 81 nM.

For the compound `CN(C)C(CCc1ccccc1)C1CCC(NC(=O)c2ccc(F)cc2)CC1` (stereo not shown) [compound 258, N-[4-(1-dimethylamino-3-phenyl-propyl)-cyclohexyl]-4-fluoro-benzamide], the inhibition at 1 µM is 79% and the Ki turned out to be 68 nM.

As to `CN(C)C(c1ccccc1)C1CCC(NC(=O)c2cncc(Br)c2)CC1` (stereo not shown) [compound 259, 5-bromo-N-[4-(dimethylamino-phenyl-methyl)-cyclohexyl]-nicotinamide], the Ki was found to be 62 nM. Further, the “μ-Opioid receptor, % inhibition [1 μM]” value (1 µM) came to 79%.

`CCn1nc(C)c(Br)c1C(=O)NC1CCC(C(c2cccs2)N(C)C)CC1` (stereo not shown) [compound 260, 4-bromo-2-ethyl-5-methyl-2H-pyrazole-3-carboxylic acid [4-(dimethylamino-thiophen-2-yl-methyl)-cyclohexyl]-amide]: the inhibition at 1 µM amounted to 78%.

For `CN(C)C(c1ccccc1)C1CCC(NC(=O)c2cccc(C#N)c2)CC1` (stereo not shown) [compound 261, 3-cyano-N-[4-(dimethylamino-phenyl-methyl)-cyclohexyl]-benzamide], the inhibition at 1 µM came to 78% and the Ki was 130 nM.

Consider `CN(C)C(c1ccc(F)cc1)C1CCC(NC(=O)c2ccc(F)cc2)CC1` (stereo not shown) [compound 262, N-{4-[dimethylamino-(4-fluoro-phenyl)-methyl]-cyclohexyl}-4-fluoro-benzamide], for which the inhibition at 1 µM worked out at 78% and the Ki was found to be 96 nM.

On to `CN(C)C(c1ccc(F)cc1)C1CCC(NC(=O)c2cccc(Br)c2)CC1` (stereo not shown) [compound 263, 3-bromo-N-{4-[dimethylamino-(4-fluoro-phenyl)-methyl]-cyclohexyl}-benzamide], for which the inhibition at 1 µM is 78% and the Ki worked out at 28 nM.

With `CN(C)C(c1cccc(F)c1)C1CCC(NC(=O)c2csc(-c3ccccc3)n2)CC1` (stereo not shown) [compound 264, 2-phenyl-thiazole-4-carboxylic acid {4-[dimethylamino-(3-fluoro-phenyl)-methyl]-cyclohexyl}-amide], the inhibition at 1 µM came out at 78% and the Ki turned out to be 110 nM.

Turning to `Cc1cc(C(=O)NC2CCC(C(c3cccc(F)c3)N(C)C)CC2)c(C)o1` (stereo not shown) [compound 265, 2,5-dimethyl-furan-3-carboxylic acid {4-[dimethylamino-(3-fluoro-phenyl)-methyl]-cyclohexyl}-amide], the inhibition at 1 µM stood at 78% and the Ki was determined as 140 nM.

Take `Cc1oc(-c2ccccc2)cc1C(=O)NC1CCC(C(c2cccc(F)c2)N(C)C)CC1` (stereo not shown) [compound 266, 2-methyl-5-phenyl-furan-3-carboxylic acid {4-[dimethylamino-(3-fluoro-phenyl)-methyl]-cyclohexyl}-amide]: the inhibition at 1 µM was 78% and the Ki was 36 nM.

For `CN(C)C(c1cccc(F)c1)C1CCC(NC(=O)c2ccc(-c3ccccn3)s2)CC1` (stereo not shown) [compound 267, 5-pyridin-2-yl-thiophene-2-carboxylic acid {4-[dimethylamino-(3-fluoro-phenyl)-methyl]-cyclohexyl}-amide], the inhibition at 1 µM was determined as 77% and the Ki amounted to 150 nM.

Turning to `CCn1nc(C)c(Br)c1C(=O)NC1CCC(C(c2ccccc2)N(C)C)CC1` (stereo not shown) [compound 268, 4-bromo-2-ethyl-5-methyl-2H-pyrazole-3-carboxylic acid [4-(dimethylamino-phenyl-methyl)-cyclohexyl]-amide], the inhibition at 1 µM stood at 76% and the Ki was 86 nM.

On to `CN(C)C(c1cccc(F)c1)C1CCC(NC(=O)c2ccc(F)c(Cl)c2)CC1` (stereo not shown) [compound 269, 3-chloro-N-{4-[dimethylamino-(3-fluoro-phenyl)-methyl]-cyclohexyl}-4-fluoro-benzamide], for which the inhibition at 1 µM worked out at 75% and the Ki was 47 nM.

Take `CN(C)C(c1ccc(F)cc1)C1CCC(NC(=O)c2ccc(Cl)c(Cl)c2)CC1` (stereo not shown) [compound 270, 3,4-dichloro-N-{4-[dimethylamino-(4-fluoro-phenyl)-methyl]-cyclohexyl}-benzamide]: the inhibition at 1 µM amounted to 75% and the Ki amounted to 190 nM.

For the compound `CN(C)C(c1ccc(F)cc1)C1CCC(NC(=O)c2cc(F)c(F)cc2F)CC1` (stereo not shown) [compound 271, N-{4-[dimethylamino-(4-fluoro-phenyl)-methyl]-cyclohexyl}-2,4,5-trifluoro-benzamide], the inhibition at 1 µM was 75% and the Ki was found to be 19 nM.

For the compound `CN(C)C(c1ccccc1)C1CCC(NC(=O)C2CCCCC2)CC1` (stereo not shown) [compound 272, cyclohexanecarboxylic acid [4-(dimethylamino-phenyl-methyl)-cyclohexyl]-amide], the inhibition at 1 µM came to 75% and the Ki stood at 90 nM.

Regarding `CCC(C(=O)NC1CCC(C(c2cccc(F)c2)N(C)C)CC1)c1ccccc1` (stereo not shown) [compound 273, N-{4-[dimethylamino-(3-fluoro-phenyl)-methyl]-cyclohexyl}-2-phenyl-butyramide], the inhibition at 1 µM was determined as 75% and the Ki is 81 nM.

Consider `CN(C)C(c1cccc(F)c1)C1CCC(NC(=O)Cc2ccc(Cl)cc2)CC1` (stereo not shown) [compound 274, 2-(4-chloro-phenyl)-N-{4-[dimethylamino-(3-fluoro-phenyl)-methyl]-cyclohexyl}-acetamide], for which the inhibition at 1 µM was determined as 74% and the Ki is 99 nM.

For the compound `CN(C)C(c1ccccc1)C1CCC(NC(=O)c2cccc([N+](=O)[O-])c2)CC1` (stereo not shown) [compound 275, N-[4-(dimethylamino-phenyl-methyl)-cyclohexyl]-3-nitro-benzamide], the inhibition at 1 µM is 74% and the inhibition constant Ki amounted to 100 nM.

In the case of `CN(C)C(CCc1ccccc1)C1CCC(NC(=O)c2cc(F)ccc2F)CC1` (stereo not shown) [compound 276, N-[4-(1-dimethylamino-3-phenyl-propyl)-cyclohexyl]-2,5-difluoro-benzamide], the inhibition at 1 µM was 74% and the Ki worked out at 65 nM.

For `CN(C)C(CCc1ccccc1)C1CCC(NC(=O)c2cccc(Br)c2)CC1` (stereo not shown) [compound 277, 3-bromo-N-[4-(1-dimethylamino-3-phenyl-propyl)-cyclohexyl]-benzamide], the inhibition at 1 µM was determined as 74% and the Ki worked out at 74 nM.

Turning to `CN(C)C(c1cccc(F)c1)C1CCC(NC(=O)c2c(F)cccc2F)CC1` (stereo not shown) [compound 278, N-{4-[dimethylamino-(3-fluoro-phenyl)-methyl]-cyclohexyl}-2,6-difluoro-benzamide], the inhibition at 1 µM stood at 74% and the Ki was 86 nM.

Turning to `Cc1cc(C(=O)NC2CCC(C(c3ccccc3)N(C)C)CC2)c(C)o1` (stereo not shown) [compound 279, 2,5-dimethyl-furan-3-carboxylic acid [4-(dimethylamino-phenyl-methyl)-cyclohexyl]-amide], the inhibition at 1 µM is 74% and the Ki came out at 140 nM.

Consider `CN(C)C(c1ccc(F)cc1)C1CCC(NC(=O)c2ccc(F)c(Cl)c2)CC1` (stereo not shown) [compound 280, 3-chloro-N-{4-[dimethylamino-(4-fluoro-phenyl)-methyl]-cyclohexyl}-4-fluoro-benzamide], for which the inhibition at 1 µM was 73% and the Ki was determined as 310 nM.

In the case of `CN(C)C(c1ccccc1)C1CCC(NC(=O)c2cc(F)ccc2C(F)(F)F)CC1` (stereo not shown) [compound 281, N-[4-(dimethylamino-phenyl-methyl)-cyclohexyl]-5-fluoro-2-trifluoromethyl-benzamide], the inhibition at 1 µM was determined as 73% and the Ki came out at 46 nM.

Consider `Cc1cc(C(=O)NC2CCC(C(c3ccccc3)N(C)C)CC2)no1` (stereo not shown) [compound 282, 5-methyl-isoxazole-3-carboxylic acid [4-(dimethylamino-phenyl-methyl)-cyclohexyl]-amide], for which the inhibition at 1 µM was found to be 73% and the Ki amounted to 110 nM.

In the case of `Cc1nc(-c2ccc3c(c2)CCO3)sc1C(=O)NC1CCC(C(c2cccs2)N(C)C)CC1` (stereo not shown) [compound 283, 2-(2,3-dihydro-benzofuran-5-yl)-4-methyl-thiazole-5-carboxylic acid [4-(dimethylamino-thiophen-2-yl-methyl)-cyclohexyl]-amide], the inhibition at 1 µM stood at 72% and the Ki is 150 nM.

Regarding `CN(C)C(c1ccccc1)C1CCC(NC(=O)COc2ccc(Cl)cc2)CC1` (stereo not shown) [compound 284, 2-(4-chloro-phenoxy)-N-[4-(dimethylamino-phenyl-methyl)-cyclohexyl]-acetamide], the inhibition at 1 µM is 72% and the Ki stood at 63 nM.

Turning to `Cc1oc(-c2ccc(Cl)cc2)cc1C(=O)NC1CCC(C(c2cccc(F)c2)N(C)C)CC1` (stereo not shown) [compound 285, 5-(4-chloro-phenyl)-2-methyl-furan-3-carboxylic acid {4-[dimethylamino-(3-fluoro-phenyl)-methyl]-cyclohexyl}-amide], the inhibition at 1 µM amounted to 71%.

For `CN(C)C(c1ccccc1)C1CCC(NC(=O)c2ccccc2Br)CC1` (stereo not shown) [compound 286, 2-bromo-N-[4-(dimethylamino-phenyl-methyl)-cyclohexyl]-benzamide], the inhibition at 1 µM came out at 71% and the Ki amounted to 54 nM.

In the case of `COc1cccc(OC)c1C(=O)NC1CCC(C(c2ccccc2)N(C)C)CC1` (stereo not shown) [compound 287, N-[4-(dimethylamino-phenyl-methyl)-cyclohexyl]-2,6-dimethoxy-benzamide], the inhibition at 1 µM worked out at 71% and the Ki amounted to 150 nM.

In the case of `CN(C)C(c1ccccc1)C1CCC(NC(=O)C2CCCC2)CC1` (stereo not shown) [compound 288, cyclopentanecarboxylic acid [4-(dimethylamino-phenyl-methyl)-cyclohexyl]-amide], the inhibition at 1 µM was found to be 70% and the Ki is 160 nM.

With `CN(C)C(c1ccccc1)C1CCC(NC(=O)c2csc(-c3ccc4c(c3)CCO4)n2)CC1` (stereo not shown) [compound 289, 2-(2,3-dihydro-benzofuran-5-yl)-thiazole-4-carboxylic acid [4-(dimethylamino-phenyl-methyl)-cyclohexyl]-amide], the inhibition at 1 µM was 70% and the Ki was 78 nM.

These data come from US8058475B2, “Substituted cyclohexylmethyl compounds” (Gruenenthal GmbH, priority 2005, dated 2011).
